For data set [1], the system named is Plasmodium falciparum. The experiment in a line: microbe, parasite or virus in culture. In kind it is functional, organism-based. As to conditions: W2, 72 h.
Data set [2] is described as follows: Cytotoxicity against human HepG2 cells measured after 72 hrs by hoechst 33342 staining based imaging assay. The data set is classed as toxicity, cell-based.

Take `CN(C(=O)c1cnc(-c2ccc(Cl)cc2)o1)c1ccc(Cl)cc1`: the EC50 in data set [1] (read-out: EC50) and in data set [1] (read-out: pEC50 (converted)) was above 10 µM throughout. Moreover, the CC50 at 72 h in data set [2] (read-out: CC50) and in data set [2] (read-out: pCC50 (converted)) was above 10 µM throughout.

`COc1ccc(N(C)C(=O)c2ncn(-c3ccc(C)cc3)n2)cc1`: the EC50 in data set [1] (read-out: EC50) is above 4.11 µM; in data set [1] (read-out: pEC50 (converted)), above 4.07 µM. Also, the CC50 at 72 h in data set [2] (read-out: CC50) and in data set [2] (read-out: pCC50 (converted)) was above 10 µM in each case.

On to `CN(C(=O)c1ncn(-c2ccc(Cl)cc2)n1)c1ccc(C(C)(C)C)cc1`, for which the figures for the EC50 in data set [1] (read-out: EC50) and in data set [1] (read-out: pEC50 (converted)) were above 8.03 µM and above 7.94 µM, respectively. In addition, the values for the CC50 at 72 h in data set [2] (read-out: CC50) and in data set [2] (read-out: pCC50 (converted)) were above 1.76 µM and above 1.78 µM, respectively.

`Cc1cccc(N(C)C(=O)c2ncn(-c3ccc(Cl)cc3)n2)c1`: the EC50 is above 4.03 µM in data set [1] (read-out: EC50) and above 4.07 µM in data set [1] (read-out: pEC50 (converted)). In addition, the CC50 at 72 h in data set [2] (read-out: CC50) and in data set [2] (read-out: pCC50 (converted)) was above 10 µM each time.

In the case of `CC(=O)c1ccc(NC(=O)c2ncn(-c3ccc(Cl)cc3)n2)cc1`, the EC50 in data set [1] (read-out: EC50) and in data set [1] (read-out: pEC50 (converted)) was above 10 µM throughout. For the same compound, the CC50 at 72 h in data set [2] (read-out: CC50) and in data set [2] (read-out: pCC50 (converted)) was above 10 µM in each case.

As for `Cc1cccc(N(C)C(=O)c2ncn(-c3ccc(C(C)C)cc3)n2)c1`, the EC50 was above 3.33 µM in data set [1] (read-out: EC50) and above 3.31 µM in data set [1] (read-out: pEC50 (converted)). For the same compound, the CC50 at 72 h in data set [2] (read-out: CC50) and in data set [2] (read-out: pCC50 (converted)) was above 10 µM throughout.

For the compound `CN(C(=O)c1cnc(-c2ccc(Cl)cc2)[nH]1)c1ccc(Cl)cc1`, the EC50 is above 2.26 µM in data set [1] (read-out: EC50) and above 2.24 µM in data set [1] (read-out: pEC50 (converted)). For the same compound, the CC50 at 72 h in data set [2] (read-out: CC50) and in data set [2] (read-out: pCC50 (converted)) was above 10 µM in each case.

Regarding `CCc1ccc(-n2cnc(C(=O)N(C)c3cccc(C)c3)n2)cc1`, the EC50 in data set [1] (read-out: EC50) was above 4.26 µM; in data set [1] (read-out: pEC50 (converted)), above 4.27 µM. Besides, the CC50 at 72 h in data set [2] (read-out: CC50) and in data set [2] (read-out: pCC50 (converted)) was above 10 µM in each case.

`Cc1ccc(-n2cnc(C(=O)N(C)c3ccc(C)c(C)c3)n2)cc1`: the EC50 was above 6.93 µM in data set [1] (read-out: EC50) and above 6.92 µM in data set [1] (read-out: pEC50 (converted)). The CC50 at 72 h in data set [2] (read-out: CC50) and in data set [2] (read-out: pCC50 (converted)) was above 10 µM in each case.

Turning to `O=C(Nc1ccc(F)cc1)c1ncn(-c2ccc(Cl)cc2)n1`, the EC50 was above 5.88 µM in data set [1] (read-out: EC50) and above 5.89 µM in data set [1] (read-out: pEC50 (converted)). Moreover, the CC50 at 72 h in data set [2] (read-out: CC50) and in data set [2] (read-out: pCC50 (converted)) was above 10 µM each time.

On to `Cc1ccc(N(C)C(=O)c2ncn(-c3ccc(C(C)C)cc3)n2)cc1C`, for which the EC50 was above 3.86 µM in data set [1] (read-out: EC50) and above 3.89 µM in data set [1] (read-out: pEC50 (converted)). Moreover, the CC50 at 72 h in data set [2] (read-out: CC50) and in data set [2] (read-out: pCC50 (converted)) was above 10 µM in each case.

On to `CCc1ccc(N(C)C(=O)c2ncn(-c3ccc(Cl)cc3)n2)cc1`, for which the figures for the EC50 in data set [1] (read-out: EC50) and in data set [1] (read-out: pEC50 (converted)) were above 5.24 µM and above 5.25 µM, respectively. The CC50 at 72 h in data set [2] (read-out: CC50) and in data set [2] (read-out: pCC50 (converted)) was above 10 µM in each case.

For the compound `COc1ccc(-n2cnc(C(=O)N(C)c3ccc(Cl)cc3)n2)cc1`, the EC50 in data set [1] (read-out: EC50) is above 3.86 µM; in data set [1] (read-out: pEC50 (converted)), above 3.89 µM. Moreover, the CC50 at 72 h in data set [2] (read-out: CC50) and in data set [2] (read-out: pCC50 (converted)) was above 10 µM in each case.

Regarding `Cc1ccc(C(=O)N(C)c2ncn(-c3ccc(C)cc3)n2)cc1`, the EC50 in data set [1] (read-out: EC50) was above 3.38 µM; in data set [1] (read-out: pEC50 (converted)) it was above 3.39 µM. Besides, the CC50 at 72 h in data set [2] (read-out: CC50) and in data set [2] (read-out: pCC50 (converted)) was above 10 µM each time.

As for `O=C(Nc1ccc(Cl)c(Cl)c1)c1ncn(-c2ccc(Cl)cc2)n1`, the EC50 in data set [1] (read-out: EC50) and in data set [1] (read-out: pEC50 (converted)) was above 10 µM each time. Moreover, the CC50 at 72 h in data set [2] (read-out: CC50) and in data set [2] (read-out: pCC50 (converted)) was above 10 µM in each case.

Regarding `Cc1ccc(NC(=O)c2ncn(-c3ccc(Cl)cc3)n2)cc1C`, the EC50 is above 2.89 µM in data set [1] (read-out: EC50) and above 2.88 µM in data set [1] (read-out: pEC50 (converted)). Further, the CC50 at 72 h in data set [2] (read-out: CC50) and in data set [2] (read-out: pCC50 (converted)) was above 10 µM in each case.

Take `COc1ccc(N(C)C(=O)c2ncn(-c3ccc(OC)cc3)n2)cc1`: the EC50 in data set [1] (read-out: EC50) and in data set [1] (read-out: pEC50 (converted)) was above 10 µM in each case. The CC50 at 72 h in data set [2] (read-out: CC50) and in data set [2] (read-out: pCC50 (converted)) was above 10 µM throughout.

On to `CN(C(=O)c1cc(-c2ccc(Cl)cc2)ccn1)c1ccc(Cl)cc1`, for which the figures for the EC50 in data set [1] (read-out: EC50) and in data set [1] (read-out: pEC50 (converted)) were 0.169 µM and 0.17 µM, respectively.

`Cc1ccc(-n2cnc(C(=O)N(C)c3cccc(C)c3)n2)cc1`: the EC50 in data set [1] (read-out: EC50) and in data set [1] (read-out: pEC50 (converted)) was above 2.82 µM throughout. Further, the CC50 at 72 h in data set [2] (read-out: CC50) and in data set [2] (read-out: pCC50 (converted)) was above 10 µM throughout.

For the compound `Cc1ccc(-n2cnc(NC(=O)c3ccc(Cl)cc3)n2)cc1`, the EC50 in data set [1] (read-out: EC50) is above 2.99 µM; in data set [1] (read-out: pEC50 (converted)) it was above 3.02 µM. In addition, the CC50 at 72 h in data set [2] (read-out: CC50) and in data set [2] (read-out: pCC50 (converted)) was above 10 µM in each case.

As for `Cc1ccc(N(C)C(=O)c2cn(-c3ccc(C)cc3)nn2)cc1`, the EC50 in data set [1] (read-out: EC50) and in data set [1] (read-out: pEC50 (converted)) was above 10 µM each time. Moreover, the CC50 at 72 h in data set [2] (read-out: CC50) and in data set [2] (read-out: pCC50 (converted)) was above 10 µM throughout.

`O=C(Nc1ccc(Cl)cc1)c1ncn(-c2ccc(Cl)cc2)n1`: the EC50 in data set [1] (read-out: EC50) is above 6.44 µM; in data set [1] (read-out: pEC50 (converted)) it was above 6.46 µM. Further, the CC50 at 72 h in data set [2] (read-out: CC50) and in data set [2] (read-out: pCC50 (converted)) was above 10 µM throughout.

With `O=C(Nc1ccc(C(F)(F)F)cc1)c1ncn(-c2ccc(Cl)cc2)n1`, the results for the EC50 in data set [1] (read-out: EC50) and in data set [1] (read-out: pEC50 (converted)) were above 6.44 µM and above 6.46 µM, respectively. Besides, the CC50 at 72 h in data set [2] (read-out: CC50) and in data set [2] (read-out: pCC50 (converted)) was above 10 µM throughout.
